The source made the active and inactive calls. No cut-off for these calls is given here.
Assays:
Arginase-1 [1] = molecular target: T1, Arginase-1 (Bos taurus, UniProt Q2KJ64); assay: Inhibition of bovine Arg-1 using L-ARG as substrate incubated for 60 mins by OPA colorimetric analysis
T1 sequence (Q2KJ64 whole entry): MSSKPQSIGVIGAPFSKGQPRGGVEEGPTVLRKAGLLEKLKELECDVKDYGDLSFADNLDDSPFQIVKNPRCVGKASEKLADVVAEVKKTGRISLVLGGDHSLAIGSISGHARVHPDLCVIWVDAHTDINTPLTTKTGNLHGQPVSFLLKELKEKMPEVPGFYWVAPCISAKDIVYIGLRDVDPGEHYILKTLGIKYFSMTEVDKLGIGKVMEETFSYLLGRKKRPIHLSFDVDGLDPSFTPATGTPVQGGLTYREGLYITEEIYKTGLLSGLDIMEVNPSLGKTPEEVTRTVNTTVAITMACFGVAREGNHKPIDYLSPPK

Arginase-1 (Bos taurus) = molecular target: T2, Arginase-1 (Bos taurus) (UniProt Q2KJ64); assay: Potency index, ratio of piceatannol IC50 to test compound IC50 for inhibition of bovine Arg-1 using L-ARG as substrate
T2 sequence (whole entry): T1 sequence (Q2KJ64 whole entry)

[2] = Antioxidant activity assessed as ABTS radical scavenging activity incubated for 12 hrs under dark condition by absorbance based plate reader analysis; type: functional
[3] = Antioxidant activity assessed as DPPH radical scavenging activity incubated for 30 mins under dark condition by absorbance based analysis; type: functional
Arginase-1 [4] = molecular target: T3, Arginase-1 (Homo sapiens, UniProt P05089); assay: Inhibition of recombinant human Arg-1 using L-ARG as substrate incubated for 60 mins by OPA colorimetric analysis
T3 sequence (P05089 whole entry): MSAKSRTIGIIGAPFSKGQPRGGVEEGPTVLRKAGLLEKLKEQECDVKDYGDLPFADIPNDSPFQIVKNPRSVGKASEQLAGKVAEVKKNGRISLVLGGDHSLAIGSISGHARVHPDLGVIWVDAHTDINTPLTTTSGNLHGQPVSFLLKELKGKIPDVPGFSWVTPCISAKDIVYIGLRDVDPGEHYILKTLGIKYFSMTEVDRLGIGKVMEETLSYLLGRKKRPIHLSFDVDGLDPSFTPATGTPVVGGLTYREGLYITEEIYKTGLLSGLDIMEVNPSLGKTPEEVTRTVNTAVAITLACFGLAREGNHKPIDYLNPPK

[5] = Stability of the compound in aqueous solution at 20 mM measured after 4 hrs; type: physicochemical; conditions: buffer, 20000 µM
[6] = Antifibrotic activity against TGF-beta induced human Red-COLA1 cells assessed as reduction in collagen deposition rate at 5 uM measured after 7 days by sirius red staining based microplate reader analysis (reference value: 130.6%); type: functional; set-up: scale not given: the % may be the effect or the level left; conditions: time 7 day
[7] = Cytotoxicity against human Red-COLA1 cells assessed as cell viability at 5 uM incubated for 24 hrs by MTT assay relative to control; type: functional; conditions: read-out: Activity
Red-COLA1 [8] = assay: (§1) Antifibrotic activity against TGF-beta induced human Red-COLA1 cells assessed as reduction in procollagen type-1 synthesis at 5 uM incubated for 48 hrs by ELISA (reference value: 130.6 ng/ml); type: functional
[9] = Antifibrotic activity against TGF-beta induced human Red-COLA1 cells assessed as reduction in collagen deposition rate at 10 uM measured after 7 days by sirius red staining based microplate reader analysis (reference value: 130.6%); type: functional; set-up: scale not given: the % may be the effect or the level left; conditions: time 7 day
[10] = Cytotoxicity against human Red-COLA1 cells assessed as cell viability at 10 uM incubated for 24 hrs by MTT assay relative to control; type: functional; conditions: read-out: Activity
Red-COLA1 [11] = assay: Antifibrotic activity against TGF-beta induced human Red-COLA1 cells assessed as reduction in procollagen type-1 synthesis at 10 uM incubated for 48 hrs by ELISA (reference value: 130.6 ng/ml); type: functional, cell-based
[12] = Stability of the compound in aqueous solution at 20 mM measured at <= 2 hrs relative to control; type: physicochemical; conditions: read-out: Stability
[13] = as §1; type: functional

SMILES: O=S(=O)(Nc1ccc(O)c(O)c1)c1ccc(O)c(O)c1
- IC50 (Arginase-1 [1]): 130 µM
- Ratio IC50 (Arginase-1 (Bos taurus)): 6

SMILES: Oc1ccc(/C=C/c2ccc(O)c(O)c2)cc1O
- IC50 (Arginase-1 [1]): 69 µM

SMILES: Oc1cccc(C(=S)Nc2ccc(O)c(O)c2)c1
- EC50 [2]: 12 µM
- IC50 (Arginase-1 [1]): 16 µM
- EC50 [3]: 10 µM
- IC50 (Arginase-1 [4]): 28 µM

SMILES: O=C(c1ccc(O)c(O)c1)N(CCCCO)c1ccc(O)c(O)c1
- IC50 (Arginase-1 [1]): 88 µM

SMILES: Nc1cccc(NC(=O)c2ccc(O)c(O)c2)c1
- IC50 (Arginase-1 [1]): 440 µM

SMILES: Oc1ccc(NC(=S)c2ccccc2)cc1O
- IC50 (Arginase-1 [1]): 63 µM

SMILES: O=C(Nc1ccc(O)c(O)c1)c1cc(O)c(O)c(O)c1
- IC50 (Arginase-1 [1]): 65 µM

SMILES: Oc1cc(O)cc(C(=S)Nc2ccc(O)c(O)c2)c1
- EC50 [2]: 12 µM
- Stability [5]: Stable
- IC50 (Arginase-1 [1]): 20 µM
- EC50 [3]: 17 µM
- Activity [6]: 133.1%
- IC50 (Arginase-1 [4]): 32 µM
- viability at 5 µM [7]: 100%
- Activity (Red-COLA1 [8]): inactive

SMILES: O=S(=O)(Nc1ccc(O)c(O)c1)c1cccc(O)c1
- IC50 (Arginase-1 [1]): 325 µM

SMILES: O=C(Nc1cc(O)cc(O)c1)c1ccc(O)c(O)c1
- IC50 (Arginase-1 [1]): 202 µM

SMILES: Oc1cc(O)cc(/C=C/c2ccc(O)c(O)c2)c1 [PICEATANNOL]
- Activity [9]: 113.5%
- EC50 [2]: 13 µM
- viability at 10 µM [10]: 100%
- IC50 (Arginase-1 [1]): 20 µM
- EC50 [3]: 37 µM
- IC50 (Arginase-1 [4]): 28 µM
- Activity (Red-COLA1 [11]): inactive
- remaining at 2 h, 20000 µM [12]: 70%

SMILES: Nc1cccc(NC(=S)c2ccc(O)c(O)c2)c1
- IC50 (Arginase-1 [1]): 116 µM

SMILES: O=c1c(O)c(-c2ccc(O)c(O)c2)oc2cc(O)cc(O)c12 [QUERCETIN]
- EC50 [2]: 10 µM
- EC50 [3]: 16 µM

SMILES: O/N=C(/Nc1ccc(O)c(O)c1)c1ccc(O)c(O)c1
- EC50 [2]: 12 µM
- IC50 (Arginase-1 [1]): 115 µM
- EC50 [3]: 16 µM

SMILES: Oc1ccc(NC(=S)c2ccc(O)c(O)c2)cc1
- IC50 (Arginase-1 [1]): 95 µM

SMILES: O=C(Nc1ccc(O)cc1)c1ccc(O)c(O)c1
- IC50 (Arginase-1 [1]): 2600 µM

SMILES: Oc1cccc(NC(=S)c2ccc(O)c(O)c2)c1
- IC50 (Arginase-1 [1]): 41 µM

SMILES: O=C(c1ccc(O)c(O)c1)N(CCCO)c1ccc(O)c(O)c1
- IC50 (Arginase-1 [1]): 148 µM

SMILES: Nc1cccc(C(=S)Nc2ccc(O)c(O)c2)c1
- IC50 (Arginase-1 [1]): 161 µM

SMILES: Oc1ccc(/C=C/c2ccccc2)cc1O [(E)-3,4-STILBENDIOL]
- IC50 (Arginase-1 [1]): 97 µM

SMILES: Oc1ccc(C(=S)Nc2ccc(O)c(O)c2)cc1
- EC50 [2]: 10 µM
- IC50 (Arginase-1 [1]): 13 µM
- EC50 [3]: 14 µM
- IC50 (Arginase-1 [4]): 38 µM

SMILES: O=C(Nc1ccc(O)c(O)c1)c1ccc(O)c(O)c1
- EC50 [2]: 12 µM
- IC50 (Arginase-1 [1]): 20 µM
- EC50 [3]: 12 µM

SMILES: O=C(Nc1ccccc1O)c1ccc(O)c(O)c1
- IC50 (Arginase-1 [1]): 3100 µM

SMILES: Oc1cc(O)cc(NC(=S)c2ccc(O)c(O)c2)c1
- IC50 (Arginase-1 [1]): 66 µM

SMILES: CN(C(=O)c1ccc(O)c(O)c1)c1ccc(O)c(O)c1
- IC50 (Arginase-1 [1]): 222 µM

SMILES: O=C(Nc1cccc(O)c1)c1ccc(O)c(O)c1
- IC50 (Arginase-1 [1]): 770 µM

SMILES: Oc1ccc(O)c(/C=C/c2ccc(O)c(O)c2)c1
- IC50 (Arginase-1 [1]): 59 µM

SMILES: Oc1ccc(C(=S)Nc2ccccc2)cc1O
- IC50 (Arginase-1 [1]): 124 µM

SMILES: N[C@@H](CSCCB(O)O)C(=O)O
- Activity [9]: 130.6%
- viability at 10 µM [10]: 96.7%
- IC50 (Arginase-1 [1]): 17 µM
- IC50 (Arginase-1 [4]): 9 µM
- Activity (Red-COLA1 [11]): inactive

SMILES: O=C(c1ccc(O)c(O)c1)N(CCCCCO)c1ccc(O)c(O)c1
- IC50 (Arginase-1 [1]): 137 µM

SMILES: Cc1c(C)c2c(c(C)c1O)CCC(C)(C(=O)O)O2 (stereo not given) [TROLOX]
- EC50 [2]: 24 µM
- EC50 [3]: 29 µM

SMILES: Oc1ccc(NC(=S)c2ccc(O)c(O)c2)cc1O
- EC50 [2]: 12 µM
- IC50 (Arginase-1 [1]): 9 µM
- Ratio IC50 (Arginase-1 (Bos taurus)): 2
- EC50 [3]: 9 µM
- Activity [6]: 100.8%
- IC50 (Arginase-1 [4]): 55 µM
- remaining at 2 h, 20000 µM [12]: 70%
- viability at 5 µM [7]: 92.8%
- Activity [13]: 87.5 ng/mL

SMILES: O=S(=O)(Nc1ccc(O)c(O)c1)c1cc(O)ccc1O
- IC50 (Arginase-1 [1]): > 500 µM

SMILES: Oc1ccc(/N=C(/Nc2ccc(O)c(O)c2)c2ccc(O)c(O)c2)cc1O
- IC50 (Arginase-1 [1]): 171 µM

SMILES: O=C(Nc1ccccc1)c1ccc(O)c(O)c1
- IC50 (Arginase-1 [1]): 1000 µM

SMILES: Nc1ccc(NC(=O)c2ccc(O)c(O)c2)cc1
- IC50 (Arginase-1 [1]): 170 µM

SMILES: O=C(Nc1ccc(O)c(O)c1)c1cc(O)cc(O)c1
- EC50 [2]: 5 µM
- IC50 (Arginase-1 [1]): 34 µM
- EC50 [3]: 23 µM

SMILES: O=C(c1ccc(O)c(O)c1)N(CCO)c1ccc(O)c(O)c1
- IC50 (Arginase-1 [1]): 228 µM

SMILES: O=C(Nc1ccc(O)c(O)c1)c1cccc(O)c1O
- IC50 (Arginase-1 [1]): 69 µM

Source: ChEMBL document CHEMBL6103595, “Synthesis and evaluation of piceatannol derivatives as novel arginase inhibitors with radical scavenging activity and their potential for collagen reduction in dermal fibroblasts” (Eur J Med Chem, 2025)
